What was measured:
[1] = test system: ZSF1 obese rats; experiment: Fasting serum insulin in ZSF1 rats (Rat Insulin ELISA); type: in vivo
Text: Blood and 24-hour urine samples were obtained from all animals at day 0 (15 weeks of age; prior to the initiation of enalapril treatment). Animals in Groups 3, 7, 8 and 9 were placed on drinking water containing enalapril and kept on Purina 5008 rodent chow (C13000). Animals in Group 1, 2, 4, 5 and 6 were kept on Purina 5008 rodent chow and drinking water. Ten days after the initiation of enalapril treatment, blood and 24-hour urine samples were collected from all animals. After day 10 blood and urine collections, animals in Groups 4, 5 and 6 received Compound I at 1, 3 and 10 mg/kg/day, respectively for 11 weeks. In addition to enalapril treatment, animals in Groups 7, 8 and 9 received Compound I at 1, 3 and 10 mg/kg/day, respectively for an additional 11 weeks.
10 weeks after the initiation of Compound I treatment, animals (27 weeks of age) were fasted for 18 hours. Serum samples were collected for the measurement of fasting insulin levels. Serum insulin levels were determined using the Rat Insulin ELISA kit (Cat #ELR-Insulin, RayBiotech, Inc.)
The data are expressed as mean±SEM. […] One-tailed tests were used for comparison of variables. Statistical significance is indicated by P values less than 0.05.

[2] = test system: obese/high fat diet C57Bl/6J mice; experiment: DIO mouse model: fasting plasma biomarkers and liver triglycerides; type: in vivo; details: DIO HFD mice, approx 6 mg/kg in diet
Text: The objective of this animal study was to evaluate the effects of Compound I in the mouse diet induced obesity (DIO) model. Assessments included body weight, food intake, oral glucose tolerance test (OGTT) and fasting plasma biomarkers of metabolic control.
Male C57Bl/6J mice with baseline body weights of 25.0-29.0 grams (lean controls) and 31.5-45.0 grams (obese/high fat diet treated) respectively, were used for this study. The lean mice (n=8) were maintained on a standard chow diet. The obese mice were given 60% high fat diet (HFD) starting at 6 weeks of age. All animals were allowed free access to drinking water and chow. The study was begun when the mice were 12 weeks of age and concluded after 4 weeks (16 weeks of age). The obese control group (n=8 mice) was maintained on HFD. The Compound I group (n=8 obese mice) was treated with HFD containing 90 mg Compound I/kg (an approximate dose of 6 mg/kg). Body weights were determined twice weekly and food intake was measured daily for 28 days. An OGTT was performed on each animal at day 28 or 29 and the animals were sacrificed on the following day. On the terminal day, 3 hour fasted blood was collected for compound concentrations and plasma biomarkers analysis including glucose, insulin and triglycerides. Organs were collected, weighed and snap frozen in liquid nitrogen for further analysis.

[3] = test system: patients with stable type 2 diabetes and hypertension; experiment: Open-label Phase 2a trial of escalating doses (NCT02906579), metabolic assessments and tolerability; type: in vivo, human; details: for Change Serum Insulin, Mean / Change Serum Insulin, Median: fasting
Text: The primary objectives of this clinical study (ClinicalTrials.gov Identifier: NCT02906579) were to assess the acute effects of escalating doses of Compound I on endothelial function (using EndoPAT™—Itamar Medical; Caesarea, Israel- to measure fingertip small vessel pulse volume), blood pressure, heart rate/pulse, safety and tolerability in patients with Type 2 diabetes and a history of hypertension. Patients in this trial were on stable medications for glucose control (blood glucose lowering medication) and hypertension (including an ARB or an ACEi). Secondary measurements included assessment of fasting glucose levels, fasting insulin levels, hemoglobin A1C (HbA1C) levels, serum cholesterol levels, serum triglyceride levels, BMI and body weight.
Allocation: non-randomized; Intervention Model: single group assignment; Masking: non (open-label), Primary purpose: treatment. Single cohort of 11 patients confined to unit. Single clinical site.
Clinic Period: The Clinic Period began at Check-in on Day-1 and ended at Discharge on Day 19. Patients who met eligibility criteria based on Screening Visit assessments were admitted to the Study Center on Day-1 for procedures to confirm eligibility and were confined to the Study Center until Discharge on Day 19. Patients received a standard diet for diabetics. On Days 1 to 18, following an overnight fast of ≥8 hours, eligible patients received once-daily study drug. Safety (adverse event [AE] collection, vital signs, fasting glucose, serum insulin, electro cardiograms [ECGs]) and pharmacokinetic (PK) assessments, including blood collections, were performed at pre-specified times daily (see Schedule of Events). Pharmacodynamic assessments was performed on a 3-day cycle that repeated for each of the 6 dosing cycles (see FIG. 29 and Schedule of Events): the first day included supine and standing cuff BP and pulse measurements; the second day include ambulatory BP monitoring (ABPM), and the third day will include EndoPAT assessments of endothelial function. In addition, blood samples were collected for optional determination of exploratory biomarkers, including metabolic markers associated with metabolic syndrome (see Schedule of Events). On Day 19, after assessments were completed, patients were discharged from the Study Center at the Investigator's discretion. Patients were rescreened should they discontinue in the Screening Period due to visit window deviations or other administrative reasons. In addition, laboratory values, ECG values, or BPs that were outside the range specified in the protocol were repeated to confirm eligibility during the screening period at the Investigator's discretion after consultation with the Medical Monitor.
Escalating single doses (in 3-day cycles) of 10, 20, 30, 40 or 50 mg of Compound I. Compound I has previously been described in WO2014144100. Metabolic parameters, including fasting serum glucose levels, fasting serum insulin levels, hemoglobin A1C (HhA1C) levels, serum lipid levels and body weight, were determined on the second day of each 3-day cycle.
Fasting glucose (mg/dL) was measured in serum both enzymatically. Insulin (pmol/L) was measured by ECLIA. Cholesterol (mg/dL) was measured enzymatically. Triglycerides (mg/dL) were measured enzymatically. HbA1c (%) was measured using Roche Tina Quant.
Compound I was administered as multiples of a 5-mg oral tablet dosage form. Placebo was administered as multiples of a 5 mg tablet. Compound I was formulated as a spray dried dispersion formulation as described in WO2017095697.
Patients received orally administered study drug at approximately the same time (±15 minutes) every day in the morning (8 to 10 AM), after an overnight fast of at least 8 hours. Patients took multiple tablets together as needed to complete the total dose. […]

[4] = after escalation 10 to 50 mg over 15 days

SMILES: OC(CNc1nc(-c2cc(-c3ccon3)n(Cc3ccccc3F)n2)ncc1F)(C(F)(F)F)C(F)(F)F [Compound I]
- Fasting Insulin ([1]; week 10, Compound I 1 mpk): 15.7 ± 3.5 μIU/mL
- Fasting Insulin ([1]; week 10, Compound I 3 mpk): 15.6 ± 2.7 μIU/mL
- Fasting Insulin ([1]; week 10, Compound I 10 mpk): 11.7 ± 1.6 μIU/mL
- Fasting plasma glucose ([2]; after 4 weeks): unchanged
- plasma insulin change vs obese controls ([2]; after 4 weeks, P<0.01): −53%
- plasma triglycerides change vs obese controls ([2]; after 4 weeks, P<0.01): −30%
- circulating and liver triglycerides ([2]; compared to obese controls): lowered
- Change Serum Insulin, Mean ([3]; 10 mg once daily cycle): 0.2 µIU/mL
- Change Serum Insulin, Median ([3]; 10 mg once daily cycle): -0.5 µIU/mL
- Change Serum Insulin, Mean ([3]; 20 mg once daily cycle): -0.4 µIU/mL
- Change Serum Insulin, Median ([3]; 20 mg once daily cycle): 0.1 µIU/mL
- Change Serum Insulin, Mean ([3]; 30 mg once daily cycle): -2.61 µIU/mL
- Change Serum Insulin, Median ([3]; 30 mg once daily cycle): -2 µIU/mL
- Change Serum Insulin, Mean ([3]; 40 mg once daily cycle): -2.49 µIU/mL
- Change Serum Insulin, Median ([3]; 40 mg once daily cycle): -1.9 µIU/mL
- Change Serum Insulin, Mean ([3]; 50 mg once daily cycle): -2.7 µIU/mL
- Change Serum Insulin, Median ([3]; 50 mg once daily cycle): -0.7 µIU/mL
- reduction in mean fasting glucose level between placebo cycle (day 2) and end of treatment ([3]; after escalation 10, 20, 30, 40, 50 mg single oral daily dose): 20%
- reduction in mean cholesterol level between baseline (day-1) and end of treatment [3, 4]: 23%
- reduction in serum TGs between day-1 (baseline) and day 19 [3, 4]: about 12%
- mean reduction of body weight ([3]; by end of treatment day 19): about 3.5 kg
- mean serum TG level ([3]; day 19): 122 mg/dL
- mean serum cholesterol level ([3]; day 19): 142 mg/dL
- Mean fasting glucose level ([3]; day 19 (end of treatment) after escalation 10 to 50 mg once daily): 114 mg/dL
- HbA1C mean reduction from baseline ([3]; day 19, actual HbA1C reading): 0.40%
- mean body weight relative to baseline (day-1) ([3]; each dosage 10 to 50 mg, cumulative over dose escalation): decreased for all dosages
- change between mean serum cholesterol value on day 19 (end of treatment) and day 32 ([3]; follow-up after end of dosing): +43.3 mg/dL
- tolerability ([3]; multiple dose escalation 10 to 50 mg once daily): well tolerated

Source: US11389449B2, “Treatment of metabolic syndrome with an sGC stimulator” (Cyclerion Therapeutics, Inc., priority 2017, dated 2022)
